Data reported in patent EP2641901A1, “Novel microbiocides” (Syngenta Participations AG, priority 2012, dated 2013).

Experiments:
[1] = tested on: Blumeria graminis f. sp. tritici; test: Blumeria graminis f. sp. tritici / wheat / leaf disc preventative (Powdery mildew on wheat); type: in vivo; details: 200ppm, wheat leaf segments cv. Kanzler, inoculated 1 day after application, percent disease control compared to untreated, 6 - 8 days after application
Method: Blumeria graminis f. sp. tritici (Erysiphe graminis f. sp. tritici) / wheat / leaf disc preventative (Powdery mildew on wheat): Wheat leaf segments cv. Kanzler were placed on agar in a 24-well plate and sprayed with the formulated test compound diluted in water at an application rate of 200ppm. The leaf disks were inoculated by shaking powdery mildew infected plants above the test plates 1 day after application. The inoculated leaf disks were incubated at 20°C and 60% relative humidity under a light regime of 24 h darkness followed by 12h/12h (dark/light) in a climate chamber and the activity of a compound was assessed as percent disease control compared to untreated when an appropriate level of disease damage appears on untreated check leaf segments (6 - 8 days after application). […] P.01, P.02

Pyrenophora teres = Pyrenophora teres / barley / leaf disc preventative (Net blotch); type: in vivo; details: 200ppm, barley leaf segments cv Hasso, inoculated two days after application, disease control compared to untreated, 5 - 7 days after application
Method: Pyrenophora teres / barley / leaf disc preventative (Net blotch): Barley leaf segments cv Hasso were placed on agar in a 24-well plate and sprayed with formulated test compound diluted in water at an application rate of 200ppm. The leaf segments were inoculated with a spore suspension of the fungus two days after application of the test solution. The inoculated leaf segments were incubated at 20°C and 65% relative humidity under a light regime of 12/12 h (light/dark) in a climate cabinet and the activity of a compound was assessed as disease control compared to untreated when an appropriate level of disease damage appears in untreated check leaf segments (5 - 7 days after application). […] P.01, P.02

Monographella nivalis = Monographella nivalis (Microdochium nivale) / liquid culture (foot rot cereals); type: cell-based; details: 200ppm; liquid culture (PDB potato dextrose broth), 24°C; inhibition of growth determined photometrically 4-5 days after application
Method: (§1) Monographella nivalis (Microdochium nivale) / liquid culture (foot rot cereals): Conidia of the fungus from cryogenic storage were directly mixed into nutrient broth (PDB potato dextrose broth). After placing a DMSO solution of test compound into a 96-well microtiter plate at an application rate of 200ppm, the nutrient broth containing the fungal spores was added. The test plates were incubated at 24°C and the inhibition of growth was determined photometrically 4-5 days after application. […] P.01, P.02

[2] = tested on: Mycosphaerella graminicola; test: Mycosphaerella graminicola (Septoria tritici) / liquid culture (Septoria blotch); type: cell-based; details: 200ppm; liquid culture (PDB potato dextrose broth), 24°C; inhibition of growth determined photometrically 4-5 days after application
Method: as §1, with “Mycosphaerella graminicola (Septoria tritici)” for “Monographella nivalis (Microdochium nivale)”, “(Septoria blotch):” for “(foot rot cereals):”

Magnaporthe grisea = type: in vivo; details: 200ppm; rice leaf segments cv. Ballila, preventative, inoculated 2 days after application; percent disease control compared to untreated, 5 - 7 days after application
Thanatephorus cucumeris = Thanatephorus cucumeris (Rhizoctonia solani) / liquid culture (foot rot, damping-off); type: cell-based; details: 200ppm; liquid culture (PDB potato dextrose broth), 24°C; inhibition of growth determined photometrically 3-4 days after application
Method: Thanatephorus cucumeris (Rhizoctonia solani) / liquid culture (foot rot, damping-off): Mycelia fragments of a newly grown liquid culture of the fungus were directly mixed into nutrient broth (PDB potato dextrose broth). After placing a DMSO solution of the test compounds into a 96-well microtiter plate at an application rate of 200ppm, the nutrient broth containing the fungal material was added. The test plates were incubated at 24°C and the inhibition of growth was determined photometrically 3-4 days after application. […] P.01, P.02

Botryotinia fuckeliana = Botryotinia fuckeliana (Botrytis cinerea) / liquid culture (Gray mould); type: cell-based; details: 200ppm; liquid culture (Vogels broth), 24°C; inhibition of growth determined photometrically 3-4 days after application
Method: as §1, with “Botryotinia fuckeliana (Botrytis cinerea)” for “Monographella nivalis (Microdochium nivale)”, “(Gray mould):” for “(foot rot cereals):”, “(Vogels” for “(PDB potato dextrose”, “3-4” for “4-5”

[3] = tested on: Puccinia recondita f. sp. tritici; test: Puccinia recondita f. sp. tritici / wheat / leaf disc preventative (Brown rust); type: in vivo; details: 200ppm, wheat leaf segments cv Kanzler, inoculated 1 day after application, percent disease control compared to untreated, 7 - 9 days after application
Method: Puccinia recondita f. sp. tritici l wheat / leaf disc preventative (Brown rust): Wheat leaf segments cultivated variety (cv) Kanzler were placed on agar in 24-well plates and sprayed with formulated test compound diluted in water at an application rate of 200ppm. The leaf disks were inoculated with a spore suspension of the fungus 1 day after application. The inoculated leaf segments were incubated at 19°C and 75% relative humidity under a light regime of 12/12 h (light/dark) in a climate cabinet and the activity of a compound was assessed as percent disease control compared to untreated when an appropriate level of disease damage appears in untreated check leaf segments (7 - 9 days after application). […] P.01, P.02

Pythium ultimum = Pythium ultimum / liquid culture (seedling damping off); type: cell-based; details: 200ppm; liquid culture (potato dextrose broth), 24°C; inhibition of growth determined photometrically 2-3 days after application
Method: Pythium ultimum / liquid culture (seedling damping off) Mycelia fragments and oospores of a newly grown liquid culture of the fungus were directly mixed into nutrient broth (potato dextrose broth). After placing a DMSO solution of test compound into a 96-well format microtiter plate at an application rate of 200ppm, the nutrient broth containing the fungal mycelia/spore mixture was added. The test plates were incubated at 24°C and the inhibition of growth was determined photometrically 2-3 days after application. […] P.01, P.02

Glomerella lagenarium = Glomerella lagenarium (Colletotrichum lagenarium) / liquid culture (Anthracnose); type: cell-based; details: 200ppm; liquid culture (PDB potato dextrose broth), 24°C; inhibition of growth measured photometrically 3-4 days after application
Method: as §1, with “Glomerella lagenarium (Colletotrichum lagenarium)” for “Monographella nivalis (Microdochium nivale)”, “(Anthracnose) :” for “(foot rot cereals):”, “measured” for “determined”, “3-4” for “4-5”

Phaeosphaeria nodorum = Phaeosphaeria nodorum / wheat / leaf disc preventative (Glume blotch); type: in vivo; details: 200ppm, wheat leaf segments cv Kanzler, inoculated 2 days after application, percent disease control compared to untreated, 5 - 7 days after application
Method: Phaeosphaeria nodorum (Septorla nodorum) / wheat / leaf disc preventative (Glume blotch): Wheat leaf segments cv Kanzler were placed on agar in a 24-well plate and sprayed with formulated test compound diluted in water at an application rate of 200ppm. The leaf disks were inoculated with a spore suspension of the fungus 2 days after application. The inoculated test leaf disks were incubated at 20°C and 75% relative humidity under a light regime of 12/12 h (light/dark) in a climate cabinet and the activity of a compound was assessed as percent disease control compared to untreated when an appropriate level of disease damage appears in untreated check leaf disks (5 - 7 days after application). […] P.01, P.02

[4] = tested on: Puccinia recondita f. sp. tritici; test: Puccinia recondita f. sp. tritici / wheat / leaf disc curative (Brown rust); type: in vivo; details: 200ppm, wheat leaf segments cv Kanzler, applied 1 day after inoculation, percent disease control compared to untreated, 6 - 8 days after application
Method: Puccinia recondita f. sp. tritici / wheat / leaf disc curative (Brown rust): Wheat leaf segments cv Kanzler were placed on agar in 24-well plates. The leaf segments were inoculated with a spore suspension of the fungus. The plates were stored in darkness at 19°C and 75% relative humidity. The formulated test compound diluted in water was applied at an application rate of 200ppm 1 day after inoculation. The leaf segments were incubated at 19°C and 75% relative humidity under a light regime of 12/12 h (light/dark) in a climate cabinet and the activity of a compound was assessed as percent disease control compared to untreated when an appropriate level of disease damage appears in untreated check leaf segments (6 - 8 days after application). […] P.01, P.02

Mycosphaerella arachidis = Mycosphaerella arachidis (Cercospora arachidicola) / liquid culture (early leaf spot); type: cell-based; details: 200ppm; liquid culture (PDB potato dextrose broth), 24°C; inhibition of growth determined photometrically 4-5 days after application
Method: as §1, with “Mycosphaerella arachidis (Cercospora arachidicola)” for “Monographella nivalis (Microdochium nivale)”, “(early leaf spot):” for “(foot rot cereals):”

CO/N=C1\CCCc2ccc(CCCO/N=C(\C)c3cccc(C)n3)nc21 [P.02]
at least 80%: control of Blumeria graminis [1] | control of Pyrenophora teres (Pyrenophora teres) | control of Monographella nivalis (Monographella nivalis) | control of Mycosphaerella graminicola [2] | control of Magnaporthe grisea (Magnaporthe grisea) | control of Thanatephorus cucumeris (Thanatephorus cucumeris) | control of Botryotinia fuckeliana (Botryotinia fuckeliana) | control of Puccinia recondita f. sp. tritici [3] | control of Pythium ultimum (Pythium ultimum) | control of Glomerella lagenarium (Glomerella lagenarium) | control of Phaeosphaeria nodorum (Phaeosphaeria nodorum) | control of Puccinia recondita f. sp. tritici [4] | control of Mycosphaerella arachidis (Mycosphaerella arachidis)
